Patent US9061994B1, “Materials and methods useful to induce vacuolization, cell death, or a combination thereof” (The University of Toledo, priority 2011, dated 2015)

Legend:
Format in all cases: cell-based, human
U251 glioblastoma cells [1] = assay: Cell morphology / vacuolization by phase-contrast microscopy; conditions: concentration not singled out ([…] and 10 μM or as in figure)
U251 glioblastoma cells [2] = assay: Sulforhodamine B (SRB) growth inhibition assay; conditions: U251; 48 h SRB; Table 1, Table 2 (FIG. 64), FIG. 63
Experimental: Cells experiencing methuosis initially undergo extreme cytoplasmic vacuolization which can be readily assessed by phase contrast microscopy. As viability is compromised (usually between 24-48 h), the cells detach from the culture surface and lose membrane integrity. […] Although methuosis can occur in a broad spectrum of human tumor cell lines, SAR studies were carried out with U251 glioblastoma cells. Therefore, this cell line was used in the present evaluation.
Total protein in adherent cells was measured by the sulforhodamine B (SRB) colorimetric assay, following standard procedures for anticancer drug screening used by the U.S. National Cancer Institute. […] On the day after plating, four wells were assayed to establish a pre-drug (time-0) baseline. Test compounds were diluted as described above and added to the remaining wells. The medium and compounds were replenished after 24 hr. SRB assays were performed at a 48 h endpoint as described, using a SpectraMax Plus 384 plate reader (Molecular Devices, Sunnyvale, Calif.) to determine absorbance at 515 nm.
Cells were seeded in 96-well plates as described in the methods. After 24 h, each compound was added at the indicated concentrations and SRB assays were performed after an additional 48 h. Each point represents the mean±SD of values from four wells. The dotted line on each graph indicates the average absorbance of four wells sampled at time-0 (i.e., the time that the compounds were added).
The human U251 glioblastoma cell line was obtained from the DCT Tumor Repository (National Cancer Institute, Fredrick, Md.). […] All test compounds were dissolved in DMSO and serially diluted in DMSO so that the desired final drug concentrations could be achieved by making a 1/1000 dilution into the culture medium. One day after plating, four wells were assayed to establish a pre-drug (time-0) baseline. At the same time, fresh medium containing test compounds was added to the remaining wells. Control wells received DMSO alone. SRB assays were performed at a 48 h endpoint. To minimize the impact of potential variations in stability among the compounds, medium with test compound was replenished after the first 24 h.

U251 glioblastoma cells [3] = assay: Classification by cellular phenotype induced in cultured cells; conditions: FIG. 72

For “3-(2-hydroxypropyl-5-methoxy-indole-3-yl)-1-(4-pyridinyl)-2-propen-1-one [402q]”, the “cell morphology / vacuolization” value (U251 glioblastoma cells [1]) was “extensive accumulation of large cytoplasmic vacuoles, with loss of viable adherent cells at concentrations >2.5 μM”, the “growth inhibitory (GI) activity, in words” value (U251 glioblastoma cells [2]) was “GI values in the low micromolar range” and the “class of cellular phenotype” value (U251 glioblastoma cells [3]) was “Class 2”.
